According to PubChem BioAssay AID1918937 (Molecular Pharmacology Branch, DTP, NCI, 2023):

Tested on: 521955-158-R2-J5-PDC complex spheroid viability
Assay: Anticancer human tumor 521955-158-R2-J5-PDC patient-derived pancreatic carcinoma cell line growth inhibition
Conditions: for IC50: curve of first compound; for viability, T/C: stronger effect = lower value; active = viability on the fitted dose curve at most 10% of control; inactive = the rest
In short: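 Complex spheroids of tumor cells with HUVEC and human MSCs, exposed to iadademstat combined with other agents. Each agent tested in half-log steps from near clinical Cmax (else 10 microM top), DMSO ≤0.25%.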
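Also: spheroids exposed to agents for seven days.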
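For viability, T/C in this document: percent of DMSO vehicle control luminescence viability.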

O=C(C=Cc1cccc(S(=O)(=O)Nc2ccccc2)c1)NO + NC1CC1c1ccc(-c2cccc(O)c2)cc1
active: viability, T/C (second compound 0.1 µM, first compound 3 µM) 0.42% | viability, T/C (second compound 0.316 µM, first compound 3 µM) 0.53% | viability, T/C (second compound 1 µM, first compound 3 µM) 1.1% | viability, T/C (second compound 3.16 µM, first compound 3 µM) 0.23% | viability, T/C (second compound 10 µM, first compound 3 µM) 0.31%
inactive: viability, T/C (second compound 0.1 µM, first compound 0.00949 µM) 103% | viability, T/C (second compound 0.1 µM, first compound 0.03 µM) 113% | viability, T/C (second compound 0.1 µM, first compound 0.0949 µM) 82.4% | viability, T/C (second compound 0.1 µM, first compound 0.3 µM) 62.8% | viability, T/C (second compound 0.1 µM, first compound 0.949 µM) 30.1% | viability, T/C (second compound 0.316 µM, first compound 0.00949 µM) 94.1% | viability, T/C (second compound 0.316 µM, first compound 0.03 µM) 102% | viability, T/C (second compound 0.316 µM, first compound 0.0949 µM) 91.1% | viability, T/C (second compound 0.316 µM, first compound 0.3 µM) 61.8% | viability, T/C (second compound 0.316 µM, first compound 0.949 µM) 23.8% | viability, T/C (second compound 1 µM, first compound 0.00949 µM) 97.7% | viability, T/C (second compound 1 µM, first compound 0.03 µM) 107% | viability, T/C (second compound 1 µM, first compound 0.0949 µM) 87.8% | viability, T/C (second compound 1 µM, first compound 0.3 µM) 65.8% | viability, T/C (second compound 1 µM, first compound 0.949 µM) 22.1% | viability, T/C (second compound 3.16 µM, first compound 0.00949 µM) 112% | viability, T/C (second compound 3.16 µM, first compound 0.03 µM) 101% | viability, T/C (second compound 3.16 µM, first compound 0.0949 µM) 89.1% | viability, T/C (second compound 3.16 µM, first compound 0.3 µM) 55.5% | viability, T/C (second compound 3.16 µM, first compound 0.949 µM) 17.1% | viability, T/C (second compound 10 µM, first compound 0.00949 µM) 112% | viability, T/C (second compound 10 µM, first compound 0.03 µM) 112% | viability, T/C (second compound 10 µM, first compound 0.0949 µM) 83.7% | viability, T/C (second compound 10 µM, first compound 0.3 µM) 61% | viability, T/C (second compound 10 µM, first compound 0.949 µM) 14.7%
356 nM: IC50 (second compound 10 µM)
347 nM: IC50 (second compound 3.16 µM)
459 nM: IC50 (second compound 0.1 µM)
446 nM: IC50 (second compound 1 µM)
438 nM: IC50 (second compound 0.316 µM)

O=C(C=Cn1cnc(-c2cc(C(F)(F)F)cc(C(F)(F)F)c2)n1)NNc1cnccn1 + NC1CC1c1ccc(-c2cccc(O)c2)cc1
75 nM: IC50 (second compound 3.16 µM)
168 nM: IC50 (second compound 1 µM)
inactive: viability, T/C (second compound 0.1 µM, first compound 0.00316 µM) 81.3% | viability, T/C (second compound 0.1 µM, first compound 0.01 µM) 75% | viability, T/C (second compound 0.1 µM, first compound 0.0316 µM) 85.6% | viability, T/C (second compound 0.1 µM, first compound 0.1 µM) 65.6% | viability, T/C (second compound 0.1 µM, first compound 0.316 µM) 42.5% | viability, T/C (second compound 0.1 µM, first compound 1 µM) 23.1% | viability, T/C (second compound 0.316 µM, first compound 0.00316 µM) 69.8% | viability, T/C (second compound 0.316 µM, first compound 0.01 µM) 79.1% | viability, T/C (second compound 0.316 µM, first compound 0.0316 µM) 78.5% | viability, T/C (second compound 0.316 µM, first compound 0.1 µM) 78% | viability, T/C (second compound 0.316 µM, first compound 0.316 µM) 34.2% | viability, T/C (second compound 0.316 µM, first compound 1 µM) 22.7% | viability, T/C (second compound 1 µM, first compound 0.00316 µM) 65.1% | viability, T/C (second compound 1 µM, first compound 0.01 µM) 66.5% | viability, T/C (second compound 1 µM, first compound 0.0316 µM) 79.3% | viability, T/C (second compound 1 µM, first compound 0.1 µM) 53.6% | viability, T/C (second compound 1 µM, first compound 0.316 µM) 40.5% | viability, T/C (second compound 1 µM, first compound 1 µM) 19.4% | viability, T/C (second compound 3.16 µM, first compound 0.00316 µM) 67.2% | viability, T/C (second compound 3.16 µM, first compound 0.01 µM) 61.2% | viability, T/C (second compound 3.16 µM, first compound 0.0316 µM) 52.2% | viability, T/C (second compound 3.16 µM, first compound 0.1 µM) 50.4% | viability, T/C (second compound 3.16 µM, first compound 0.316 µM) 36.9% | viability, T/C (second compound 3.16 µM, first compound 1 µM) 17.5% | viability, T/C (second compound 10 µM, first compound 0.00316 µM) 56.6% | viability, T/C (second compound 10 µM, first compound 0.01 µM) 56.9% | viability, T/C (second compound 10 µM, first compound 0.0316 µM) 43.6% | viability, T/C (second compound 10 µM, first compound 0.1 µM) 36.5% | viability, T/C (second compound 10 µM, first compound 0.316 µM) 24.7% | viability, T/C (second compound 10 µM, first compound 1 µM) 16.8%
17.8 nM: IC50 (second compound 10 µM)
205 nM: IC50 (second compound 0.316 µM)
219 nM: IC50 (second compound 0.1 µM)
